Legend:
[1] = molecular target: T1, PAF receptor (rabbit platelet membranes) (Oryctolagus cuniculus, UniProt G1TEI7); experiment: PAF Receptor Binding Assay; conditions: 0.6 nM [^3 H]C18 -PAF, 60 minutes, room temperature, calculated as IC50/2
T1 construct: Rabbit platelets were prepared by centrifugation and washing; tissue Pel-Freez (Rogers, AR); host or cells: rabbit platelets (washed, from citrated whole blood; lysed membranes)
Experimental: PAF Receptor Binding Assay Citrated whole rabbit blood was obtained from Pel-Freez(Rogers, AR). Rabbit platelets were prepared by centrifugation and washing. The platelets were lysed by freeze-thawing and sonification; Platelet membranes were prepared by centrifugation and washing. Final membrane preparation were stored frozen in 10 mM Tris/5 mM MgCl2 /2 mM EDTA (TME buffer, pH 7.0) with 0.25M sucrose added for membrane stabilization. […] The final volume of the assay was 100 μl. […] The […] and removed. The bound radioactivity was quantitated with a Berthold TLC-Linear Analyzer model LB2842. […] Experiments were repeated at least once. […] Ki values of inhibitory binding constants were calculated according to the methods of the literature[Cheng et al., Biochem.

[2] = system: PAF-induced [^14 C]-serotonin release, rabbit platelets; experiment: Inhibitory action on PAF-induced [^14 C]-serotonin release; format: cell-based, rabbit (New Zealand white); conditions: Oryctolagus cuniculus, Platelet, PAF 1×10^-9 M; for inhibition at 0.05 µM: test compound 5 × 10^-8 M; for inhibition at 0.2 µM: test compound 2 × 10^-7 M; for inhibition at 0.005 µM: test compound 5 × 10^-9 M
Experimental: Inhibitory action on PAF-induced [^14 C]-serotonin release
Blood was collected from the hearts of conscious New Zealand white male rabbits weighing 2 to 3 kg. The blood was immediately subjected to a centrifuge at 1400 rpm for 10 minutes to obtain platelet rich plasma(PRP).PRP was incubated with a trace mount of [^14 C]-serotonin for 20 minutes at 22° C. Prelabelled platelets were prepared by centrifugation at 3500 rpm for 10 minutes. The test compound was added to 80 μl of [^14 C] serotonin-labeled platelets in plastic test tubes, and the mixture was incubated for 2 minutes. PAF (1×10^-9 M) was then added to the reaction mixture and incubated for additional 2 minutes at which time 10 μl of cold formaldehyde was added to stop the reactions. The tubes were immediately cooled to 4° C. and centrifuged at 12000 rpm for 2 minutes. The supernatants (80 μl) were assayed for percentage of [^14 C] serotonin release by the conventional methods of measuring ^14 C counts.

[3] = system: PAF-induced platelet aggregation, rabbit platelet-rich plasma; experiment: Inhibitory action on PAF-induced platelet aggregation; format: cell-based, rabbit (New Zealand white); conditions: Oryctolagus cuniculus, rabbit PRP, PAF 5×10^-9 M, 37° C.
Experimental: Inhibitory action on PAF-induced platelet aggregation Blood was collected from the […] of conscious New Zealand white male rabbits weighing 2 to 3 kg using citric acid as an anticoagulant (one volume pan of 3% citric acid relative to 9 volume parts of the whole blood). […] PRP was diluted with PPP to adjust the number of platelets to about 3×10^5 /μl. […] Platelet aggregation was then examined by means of turbidimetry [Born, Nature, 194, 927(1962)] with dual channel aggegometer (Chrono-Log. Corp., Havertown, Pa.). As the control, physiological saline without test sample was used. The platelet aggregation inhibiting activities of the test sample are expressed as IC50, that is the concentration of the compound at which 50% of the aggregation is inhibited.

T1 sequence (G1TEI7 1-342): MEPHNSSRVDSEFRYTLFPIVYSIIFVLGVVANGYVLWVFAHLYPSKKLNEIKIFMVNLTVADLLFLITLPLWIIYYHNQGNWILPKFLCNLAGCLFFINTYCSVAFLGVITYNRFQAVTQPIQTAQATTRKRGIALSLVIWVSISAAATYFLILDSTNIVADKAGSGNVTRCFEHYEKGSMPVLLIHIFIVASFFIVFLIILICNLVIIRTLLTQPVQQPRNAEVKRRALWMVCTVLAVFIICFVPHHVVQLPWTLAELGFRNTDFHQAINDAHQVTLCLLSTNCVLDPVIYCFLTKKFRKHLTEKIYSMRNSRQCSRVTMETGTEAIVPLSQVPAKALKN

Row | SMILES | Ki [1] | inhibition at 0.05 µM [2] | IC50 [3] | inhibition at 0.2 µM [2] | inhibition at 0.005 µM [2]
1 | CCCCCCCCCCCCCCCCOC[C@H]1C[C@@H](COC(=O)N(Cc2cccc[n+]2CC)C(C)=O)O1 (relative stereo) [Example 1, cis-2-[[N-Acetyl-N-[[[2-[(hexadecyloxy)methyl]-4-oxetanyl]methoxy]carbonyl]amino]methyl]-1-ethyl-pyridinium iodide] | 21.2 nM | 51% | 95 nM |  | 
2 | CCCCCCCCCCCCCCCCOC[C@H]1C[C@H](COC(=O)N(Cc2cccc[n+]2CC)C(C)=O)O1 (relative stereo) [Example 2, trans-2-[[N-Acetyl-N-[[[4-[(hexadecyloxy)methyl]-2-oxetanyl]methoxy]carbonyl]amino]methyl]-1-ethyl-pyridinium iodide] | 14.7 nM | 93% | 57 nM | 98% | 44%
3 | CCCCCCCCCCCCCCCCOCC1(COC(=O)CCCCC[n+]2ccccc2)COC1 [Example 10, N-[5-[[[3-[(Hexadecyloxy)methyl]-3-oxetanyl]methoxy]carbonyl]pentyl]pyridinium bromide] |  | 43% |  | 86% | 
4 | CCCCCCCCCCCCCCCCCCNC(=O)OCC1(COC(=O)CCCCC[n+]2ccccc2)COC1 [Example 12, N-[5-[[[3-[[(Octadecylcarbamoyl)oxy]methyl]-3-oxetanyl]methoxy]carbonyl]pentyl]pyridinium bromide] |  | 58% |  | 94% | 
5 | CCCCCCCCCCCCCCCCCCNC(=O)OCC1(COC(=O)CCCCC[n+]2ccsc2)COC1 [Example 13, 3-[5-[[[3-[[(Octadecylcarbamoyl)oxy]methyl]-3-oxetanyl]methoxy]carbonyl]pentyl]thiazolium bromide] | 30.5 nM |  | 382 nM | 92% | 
6 | CCCCCCCCCCCCCCCCCCNC(=O)OCC1(COC(=O)N(Cc2cccc[n+]2CC)C(C)=O)CCC1 [Example 14, 2-[[N-Acetyl-N-[[[1-[[(octadecylcarbamoyl)oxy]methyl]-1-cyclobutyl]methoxy]carbonyl]amino]methyl]-1-ethyl-pyridinium iodide] | 6.6 nM | 98% | 118 nM | 99% | 18%
